{"source": "patent US8357379B2", "about": "“High concentration baclofen preparations” (Board of Regents, The University of Texas System, priority 2004, dated 2013)", "key": {"[1]": {"conditions": "intrathecal injection at effective CSF concentrations vs oral administration; cited from earlier work"}, "[2]": {"assay": "Time to complete dissolution during preparation of high concentration solutions", "assay_type": "physicochemical", "method": "Solubilization of Baclofen by Heat and Sonication. Appropriate amounts of baclofen were weighed and added to appropriate volumes of normal saline in order to produce mixtures containing 4, 5, 6, 8 or 10 mg/mL baclofen. All samples had undissolved baclofen powder present immediately after mixing. Samples having concentrations of 4, 5 or 6 mg/mL of baclofen were heated to 70° C. Samples having concentrations of 8 and 10 mg/mL of baclofen were heated to 95° C. Intense agitation was applied to all of the samples by sonicating the samples during the heating step. Heating and sonication were continued until all of the powder dissolved, and a clear solution with no residual particulate matter resulted. For the 4, 5, and 6 mg/mL samples, this occurred in about 20 to 30 minutes. […] Again, the solutions were clear with no residual particulate matter.\nSolubilization of Baclofen by Heat and High-Speed Stirring. Appropriate amounts of baclofen were weighed and added to appropriate volumes of normal saline in order to produce mixtures containing 4, 5, 6, 8 or 10 mg/mL baclofen. All samples had undissolved baclofen powder present immediately after mixing. Samples having concentrations of 4, 5 or 6 mg/mL of baclofen were heated to 70° C. Samples having concentrations of 8 and 10 mg/mL of baclofen were heated to 95° C. Intense agitation was applied to all of the samples by high-speed stirring. A high-speed stir bar was placed in each of the containers for each of the baclofen concentrations was stirred using a Thermolyne stirrer at a speed of about 600 rpm while the solutions were heated. This was designed to simulate the use of a high-speed high shear mixer in a larger industrial setting. Again the heating at 70° C. for the 4, 5, and 6 mg/mL concentrations and to 95° C. for the 8 and 10 mg/mL concentrations and high-speed stirring were continued until all of the powder had dissolved and a clear solution with no residual particulate matter resulted. This occurred within about 20 minutes with all samples.\nAcidification with Back Titration. Baclofen concentrations of 4, 5, 6, 8, and 10 mg/mL were prepared by dissolving appropriate amounts of baclofen powder in 0.1 N hydrochloric acid. […] The solutions were then back titrated with 0.1 N sodium hydroxide to reach a pH about 5.0 to 5.1, which is within the current product pH range for commercial baclofen solutions, and brought to volume with 0.9% sodium chloride. After complete dissolution had occurred, the solutions were filtered through 0.22-micron sterilizing filters into sterile empty vials. The vials were stored at room temperature, under refrigeration, and at 37° C. to simulate “in use” conditions in an implanted pump.\nAlkalinization with Back Titration. Baclofen concentrations of 4, 5, 6, 8, and 10 mg/mL were prepared by dissolving appropriate amounts of baclofen powder in 0.1 N sodium hydroxide. […] The solutions were then back titrated with 0.1 N hydrochloric acid to reach a pH about 6.9 to 7.0, which is within the current product range, and brought to volume with 0.9% sodium chloride. After complete dissolution had occurred, the solutions were filtered through 0.22-micron sterilizing filters into sterile empty vials. The vials were stored at room temperature, under refrigeration, and at 37° C. to simulate “in use” conditions in an implanted pump."}, "[3]": {"conditions": "20° C.; cited from earlier work"}}, "data": [{"smiles": "NCC(CC(=O)O)c1ccc(Cl)cc1", "note": "(centres unmarked) [Baclofen, 4-amino-3-(p-chlorophenyl) butyric acid]", "values": [{"measurement": "plasma concentrations with intrathecal injection relative to oral administration", "setting": "[1]", "value": 100, "unit": "times less"}, {"measurement": "time until all powder dissolved (clear solution)", "setting": "[2]; 4, 5, 6 mg/mL at 70° C. and 8, 10 mg/mL at 95° C., normal saline, high-speed stirring about 600 rpm (Example 2)", "value": "≤ 20", "unit": "min"}, {"measurement": "time until powder dissolved (clear solution)", "setting": "[2]; 4, 5, 6, 8, and 10 mg/mL in 0.1 N hydrochloric acid (Example 3)", "value": "within a few minutes"}, {"measurement": "time until powder dissolved (clear solution)", "setting": "[2]; 4, 5, 6, 8, and 10 mg/mL in 0.1 N sodium hydroxide (Example 4)", "value": "within a few minutes"}, {"measurement": "time until all powder dissolved (clear solution)", "setting": "[2]; 4, 5, and 6 mg/mL in normal saline, 70° C., sonication (Example 1)", "value": "20 to 30", "unit": "min"}, {"measurement": "time until all powder dissolved (clear solution)", "setting": "[2]; 8 and 10 mg/mL in normal saline, 95° C., sonication (Example 1)", "value": "about 20 minutes"}, {"measurement": "pKa1", "setting": "[3]", "value": "3.8±0.1"}, {"measurement": "pKa2", "setting": "[3]", "value": "9.62±0.1"}]}]}
